Experimental findings from publication PMC7071109, “Validation of an HPLC Method for the Simultaneous Quantification of Metabolic Reaction Products Catalysed by CYP2E1 Enzyme Activity: Inhibitory Effect of Cytochrome P450 Enzyme CYP2E1 by Salicylic Acid in Rat Liver Microsomes” (Molecules, 2020) are described below.

Structures are written as SMILES.

The test addresses CYP2E1 (Rattus norvegicus, UniProt P05182). Put plainly: inhibition of chlorzoxazone 6-hydroxylation in rat liver microsomes, HPLC. It is filed as biochemical. On the technique in general: Microsomes from liver hold many membrane-bound enzymes, among them those of drug oxidation.

In general, Ki refers to the dissociation constant of the complex between target and ligand, obtained from inhibition or displacement. High values mean weaker binding, low ones tighter binding.

CYP2E1, sequence (P05182 2-493): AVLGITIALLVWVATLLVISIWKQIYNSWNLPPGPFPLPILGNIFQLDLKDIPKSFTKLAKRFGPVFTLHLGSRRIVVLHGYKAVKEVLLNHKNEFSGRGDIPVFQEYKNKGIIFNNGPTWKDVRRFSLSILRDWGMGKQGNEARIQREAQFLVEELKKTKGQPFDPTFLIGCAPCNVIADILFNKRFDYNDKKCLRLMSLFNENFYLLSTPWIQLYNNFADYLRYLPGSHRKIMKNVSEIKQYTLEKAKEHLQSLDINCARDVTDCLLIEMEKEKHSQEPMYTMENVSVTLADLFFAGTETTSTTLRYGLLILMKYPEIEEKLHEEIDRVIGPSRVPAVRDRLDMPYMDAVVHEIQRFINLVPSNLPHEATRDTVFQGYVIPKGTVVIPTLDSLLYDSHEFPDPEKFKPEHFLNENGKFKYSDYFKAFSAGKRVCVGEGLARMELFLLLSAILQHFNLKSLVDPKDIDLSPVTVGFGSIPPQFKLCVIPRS

The compound `O=C(O)c1ccccc1O` [salicylic acid] showed a Ki of 83.6 ± 2.73 µM.
